This passage reports EC50 results from PubChem BioAssay AID1508610 (The Scripps Research Institute Molecular Screening Center, 2020).

Activity calls are given as the source filed them. The rule behind the calls is not given here.

The target in this assay is G-protein coupled receptor 151 (Homo sapiens) (UniProt Q8TDV0). Description: GPR151 activator potency, dose response, cell-based (AID 1508610). The conditions noted are these: cell-based GPR151 activation reporter.
G-protein coupled receptor 151 (Homo sapiens), sequence (Q8TDV0 whole entry, looked up): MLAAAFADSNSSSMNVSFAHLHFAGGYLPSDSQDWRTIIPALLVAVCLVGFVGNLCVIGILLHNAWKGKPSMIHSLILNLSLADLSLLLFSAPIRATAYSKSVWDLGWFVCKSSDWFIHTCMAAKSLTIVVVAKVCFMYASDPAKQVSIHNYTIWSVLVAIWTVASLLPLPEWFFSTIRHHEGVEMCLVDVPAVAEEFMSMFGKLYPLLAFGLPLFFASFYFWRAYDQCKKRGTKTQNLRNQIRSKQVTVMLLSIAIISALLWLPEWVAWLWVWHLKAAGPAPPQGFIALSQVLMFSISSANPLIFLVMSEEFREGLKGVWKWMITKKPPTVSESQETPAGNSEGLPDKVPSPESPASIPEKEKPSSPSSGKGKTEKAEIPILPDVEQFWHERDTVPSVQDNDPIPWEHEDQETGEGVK
With `O=Cc1cccc(OCc2ccc(C(=O)O)cc2)c1`, the EC50 is > 28 µM (inactive). Turning to `C=CCN1C(=O)/C(=C/c2ccc(Cl)cc2)C(=O)NC1=S`, the EC50 is > 28 µM (inactive). In the case of `Cc1cc(C)c(C#N)c(Oc2cccc(N)c2)n1`, the EC50 was > 28 µM (inactive). The value for `CN1CCN(C(=O)c2ccc(-c3nc4ccc(C(=O)NCCOc5ccccc5)cc4s3)cc2)CC1` was > 28.1 µM (inactive); that for `O=C(Nc1nc2ccccc2[nH]1)c1ccc(Cl)cc1Cl` was > 29.3 µM (inactive). The result for `O=C(O)c1cccc(COc2ccc(CO)cc2Br)c1` reads > 28 µM (inactive); that for `CC(=O)Nc1ccc(Nc2nc(-c3ccc(C(=O)NC4CC4)cc3)nc3nc[nH]c23)cc1`, > 27.8 µM (inactive). For the compound `COc1ccc(/C=C/C(=O)Nc2ccccc2F)cc1`, the EC50 is > 30.5 µM (inactive).

Consider `CCOC(=O)N1CCN(C(=S)Nc2ccc(C)cc2)CC1`, for which the EC50 was > 28 µM (inactive). In the case of `CCN(CC)c1nc(SC)nc(Cl)c1Cc1ccc(OC(C)C)cc1`, the EC50 was > 25.2 µM (inactive). Take `O=S(=O)(c1ccc(-c2csc(=Nc3cccc(Cl)c3)n2CCCO)cc1)N1CCCCC1`: the EC50 was > 17.6 µM (inactive).

Consider `C=CCOc1ccc(C(=O)N(Cc2nc(-c3ccc(OC)c(OC)c3)no2)C(C)C)cc1`, for which the EC50 is > 28 µM (inactive). Regarding `O=C(O)c1cccc(COc2ccc(CO)cc2Cl)c1`, the EC50 was > 28 µM (inactive). Turning to `CCOC(=O)c1cc(C)n(CCc2ccccc2)c1C`, the EC50 is > 39.1 µM (inactive).

For `COc1ccccc1N=C1SC(CC(=O)Nc2cccc([N+](=O)[O-])c2)C(=O)N1C` (centres undefined), the EC50 is > 28 µM (inactive). On to `C=CCn1c(C)cc(C2=NNC(=NCC)SC2)c1C`, for which the EC50 is > 28.7 µM (inactive). For `Cc1sc(NC(=O)c2cc3ccccc3oc2=O)nc1-c1ccc(Br)cc1`, the EC50 is > 18.6 µM (inactive).

With `COc1ncc(-c2cncc(-c3cccc(O)c3)n2)c(OC)n1`, the EC50 is > 28 µM (inactive). Take `Cc1ccc(CNC(=O)c2csnn2)cc1`: the EC50 was > 28 µM (inactive).

On to `O=C(COc1ccccc1Cl)Nc1nccs1`, for which the EC50 is > 39.1 µM (inactive).

`COC(=O)C(NC(=O)c1cccc(Cl)c1)(Nc1ccc(Cl)cn1)C(F)(F)F` (centres undefined): the EC50 was > 28 µM (inactive). As to `C=CCN1C(=O)CC(C(=O)OC)C12CCN(C1CCN(C(=O)OCC)CC1)CC2` (centres undefined), the EC50 is > 28 µM (inactive). Turning to `CCN=C1SC(CC(=O)Nc2sc(C)c(C)c2C(=O)OC)C(=O)N1CC` (centres undefined), the EC50 is > 28.2 µM (inactive). As for `Nc1nc2n(n1)C(c1ccccc1Cl)CC(c1ccc(F)cc1)N2` (centres undefined), the EC50 is > 28 µM (inactive). Regarding `Nc1ncnc2c1ccn2[C@@H]1O[C@H](CO)[C@@H](O)[C@H]1O`, the 50% effective concentration (EC50) is 3.11 µM. Turning to `CCNc1nc(OC(C(F)(F)F)C(F)(F)F)nc(N2CCCCC2)n1`, the EC50 is > 28 µM (inactive). The result for `CCOc1ccc(/C=C2\SC(=S)N(CC(=O)Nc3ccc(O)cc3)C2=O)cc1` reads > 28.4 µM (inactive); that for `CCCCNC(=O)/C(=C/c1ccccc1)NC(=O)/C=C/c1ccco1`, > 28 µM (inactive). `COc1ccc(C(=O)Nc2cc(C(=O)NCc3ccc(F)cc3)ccc2N2CC3CC(C2)c2cccc(=O)n2C3)cc1` (centres undefined): the EC50 was > 16.9 µM (inactive). As to `O=C1CC(C(=O)N2CCCC(c3[nH]ncc3-c3ccccc3)C2)c2ccccc21` (centres undefined), the EC50 was > 28 µM (inactive). In the case of `CCCNC(=O)c1ccc(-c2ccc(N3CCOCC3)nc2)s1`, the EC50 is > 28.1 µM (inactive). As to `Cc1ccc(CNC(=O)c2c(C)cc(=O)oc2C)cc1`, the EC50 is > 28 µM (inactive).

With `CC[C@@H]1NC(=O)[C@H]2CN(C(=O)c3cccc(Cl)c3)CCN2C1=O`, the EC50 was > 28 µM (inactive). Regarding `Cc1ccc(C(=O)Nc2nc(Cl)c(C#N)s2)cc1`, the EC50 is > 28.2 µM (inactive). Regarding `O=C(NN=C1CCCCC1)C(O)(c1ccccc1)c1ccccc1`, the EC50 was > 28 µM (inactive). The result for `CCc1ccc2c(c1)/C(=C/C(=O)c1cccs1)C(=O)N2` reads > 28 µM (inactive); that for `CCc1ccccc1NC(=S)N(CCc1ccc(OC)c(OC)c1)Cc1cccnc1`, > 24.3 µM (inactive). Consider `COC(=O)c1ccc(C2C(C#N)=C(N)Oc3n[nH]c(C45CC6CC(CC(C6)C4)C5)c32)cc1` (centres undefined), for which the EC50 result is “inactive”. Regarding `O=C1CCCN1CCn1cnc2c(NCCOc3ccccc3)nc(N3CCc4ccccc4C3)nc21`, the EC50 was > 27.9 µM (inactive). As for `O=C(N1CCN(Cc2ccccc2)CC1)C(Cl)(Cl)Cl`, the EC50 was > 28 µM (inactive). The result for `CCOC(=O)c1ccccc1NC(=O)CN(c1ccc(Cl)c(Cl)c1)S(C)(=O)=O` reads > 28 µM (inactive); that for `COc1ccc(-c2ccc(C(N)=O)s2)cc1`, > 28.1 µM (inactive); that for `COc1ccc(N=C2SC(CC(=O)Nc3ccc(OC)cc3OC)C(=O)N2C)cc1` (centres undefined), 0.00244 µM.

Turning to `CCCCCCCCCCCCCC/C(C(=O)O)=C(\C)C(=O)O`, the EC50 was > 28 µM (inactive). `COc1cc(CNc2ccc3ncc(-c4cnn(C)c4)n3n2)cc(OC)c1OC`: the EC50 was > 28 µM (inactive). The result for `COc1cccc(NC(=O)c2cc(C3CC3)[nH]n2)c1` reads > 28 µM (inactive); that for `Cc1ccc(-c2cnn(-c3ccc(C(=O)O)cc3)c2)cc1`, > 28 µM (inactive). Turning to `COc1cccc(-c2ccc(SCC(=O)Nc3cccc(NC(C)=O)c3)nn2)c1`, the EC50 is > 27.4 µM (inactive). The result for `Fc1cccc(-c2cc3nc4c(c(N5CCOCC5)n3n2)CCC4)c1` reads > 28 µM (inactive); that for `COCCNC(=O)/C(C#N)=C/C=C/c1ccccc1`, > 30.6 µM (inactive); that for `Cc1nn(-c2ccccc2)c(Cl)c1/C=N\O`, > 28 µM (inactive). As to `CCN(CC(=O)NC1CCCCCC1)S(=O)(=O)c1ccc(C)cc1`, the EC50 was > 28 µM (inactive). As for `Cc1cccc(-n2ncc3c(Nc4ccc(F)cc4F)ncnc32)c1`, the EC50 was > 26.9 µM (inactive). As to `COC(=O)CN1C(=O)S/C(=C\c2cc(Br)c(OC)c(OC)c2)C1=O`, the EC50 was > 28 µM (inactive).

On to `CCC(=O)N1CCN(c2ccc(NC(=O)c3ccco3)cc2)CC1`, for which the EC50 is > 28 µM (inactive). The result for `O=C(O)C1CCCN(c2nn3cc(-c4ccc(F)cc4)nc3s2)C1` (centres undefined) reads > 28 µM (inactive); that for `COc1cc(OC)cc(C(=O)Nc2ccc3c(c2)OCO3)c1`, > 31.5 µM (inactive); that for `CCCCN(CCNC(=O)Cn1ncc2c1-c1cc(C)ccc1OC2)Cc1ccco1`, > 28 µM (inactive). Consider `CC(=O)OC(C(=O)NCc1ccco1)c1ccncc1` (centres undefined), for which the EC50 was > 28 µM (inactive). Consider `O=C1/C(=C\c2ccncc2)SC(=S)N1Cc1ccccc1`, for which the EC50 entry is “inactive”. The result for `Fc1ccc2nc(N3CCN(c4nc5ccccc5s4)CC3)sc2c1` reads > 28 µM (inactive); that for `Cc1ccccc1C(=O)Nc1noc2ccccc12`, > 28 µM (inactive). Consider `COc1ccc(OC(C)C(=O)Nc2cc(C)ccc2C)cc1` (centres undefined), for which the EC50 was > 32 µM (inactive).

In the case of `CCN1CCN(Cc2ccc(NC(=O)Nc3ccccc3C)cc2)CC1`, the EC50 is > 28 µM (inactive). As for `O=C(Nc1ccc(Oc2cccc(Oc3ccc(NC(=O)c4ccccc4F)cc3)c2)cc1)c1ccccc1F`, the EC50 was > 14.8 µM (inactive). As for `Cc1ccc2c(c1)N(CC(=O)Nc1ccc(Cl)cc1)C(=O)C(C)O2` (centres undefined), the EC50 was > 28 µM (inactive).

As for `CCOc1ccccc1NC(=O)N1CCC2(CC1)OCCO2`, the EC50 was > 28 µM (inactive). In the case of `COc1ccc(CCNC(=O)/C=C\C(=O)O)cc1OC`, the EC50 is > 28 µM (inactive). Consider `CC(C)Cn1c(-c2nn(C)cc2Cl)n[nH]c1=S`, for which the EC50 was > 28 µM (inactive). Consider `O=C(NCCO)c1ccc(-c2ccc(N3CCOCC3)nc2)s1`, for which the EC50 is > 27 µM (inactive). Take `Cc1ccc(NC(=O)C(CC(=O)O)C2CCCO2)cc1` (centres undefined): the EC50 is > 28 µM (inactive). The value for `CC(C)CCN1C(=O)C(C)(C)COc2cc(NC(=O)c3ccc4c(c3)OCO4)ccc21` was > 28 µM (inactive); that for `Cc1cc2nc(-c3cccnc3SCC(=O)NCc3ccco3)[nH]c2cc1C` was > 28 µM (inactive); that for `CC(C)c1ccc(Cn2ccc3c4c(N)nc(NC5CC5)nc4ccc32)cc1` was 3.86 µM. `O=C(CCn1nc(-c2ccccc2)c2ccccc2c1=O)NCc1ccccc1`: the EC50 was > 28 µM (inactive). Take `O=C1NC(=S)S/C1=C\c1ccc(C(=O)O)cc1`: the EC50 is > 29.6 µM (inactive). Consider `Cc1cnc(C)c(NC2CCCCNC2=O)n1` (centres undefined), for which the EC50 is > 28 µM (inactive). For `COc1ccc(NS(=O)(=O)c2cccc3c(S(=O)(=O)Nc4ccc(OC)cc4OC)cccc23)c(OC)c1`, the EC50 is > 20.8 µM (inactive). Turning to `CCCCCCCC(=O)N/N=C/c1ccccc1OC`, the EC50 was > 28 µM (inactive). On to `CSc1nccc(-c2cc(Cl)c3c(c2)CC(CNC(=O)c2ccoc2)O3)n1` (centres undefined), for which the EC50 is > 28 µM (inactive). For `CN(C)/C=C1/C(=O)N(c2nc3ccccc3s2)N=C1C(F)(F)F`, the EC50 is > 38.5 µM (inactive). Take `O=c1oc2cc(O)ccc2cc1-c1ccc(Cl)cc1`: the EC50 is > 28.8 µM (inactive). Take `O=C(/C=C/c1cccc([N+](=O)[O-])c1)NC1C2CC3CC(C2)CC1C3` (centres undefined): the EC50 is > 34 µM (inactive).

For the compound `C/C(=C\c1ccccc1)C(=O)Nc1ccccc1C(=O)O`, the EC50 was > 31.9 µM (inactive). `COc1cc(Br)ccc1OCC(=O)N/N=C/c1ccc([N+](=O)[O-])cc1`: the EC50 is > 28 µM (inactive). Turning to `Cc1ccnc(SCc2cc(=O)c(OC(=O)c3cc(Cl)ccc3[N+](=O)[O-])co2)n1`, the EC50 was > 28.4 µM (inactive). As to `COC(=O)c1ccc(CN2CCN(Cc3ccc(OC)c(C)c3)C(CCO)C2)cc1` (centres undefined), the EC50 is > 28 µM (inactive). Regarding `COc1ccc(-c2ccc(C(=O)Nc3ccccc3)s2)cc1`, the EC50 is > 27.9 µM (inactive). `CCOC(=O)c1cnc2c(OC)cccc2c1NC1CCCCC1`: the EC50 result is “inactive”.
